Measured values from US20190327974A1, “SYNERGISTS FOR IMPROVED PESTICIDES” (priority 2017, published 2019).
Like-named read-outs stand apart in the source and are kept apart here.

What was measured:
[1] = target: T1, wild-type LcαE7 (αE7 carboxylesterase) (Lucilia cuprina, UniProt Q25252); assay: Inhibition of wildtype αE7 (competition assay, hydrolysis of 4-nitrophenol butyrate), dose-response curves of FIG. 7; format: biochemical; conditions: 95% confidence interval in brackets; recombinant His6-tagged enzyme from E. coli, 0.5 nM; 4-nitrophenol butyrate 15 μM (= KM); room temperature, pH 7.5, 405 nm; three technical replicates
T1 sequence (Q25252 1-570): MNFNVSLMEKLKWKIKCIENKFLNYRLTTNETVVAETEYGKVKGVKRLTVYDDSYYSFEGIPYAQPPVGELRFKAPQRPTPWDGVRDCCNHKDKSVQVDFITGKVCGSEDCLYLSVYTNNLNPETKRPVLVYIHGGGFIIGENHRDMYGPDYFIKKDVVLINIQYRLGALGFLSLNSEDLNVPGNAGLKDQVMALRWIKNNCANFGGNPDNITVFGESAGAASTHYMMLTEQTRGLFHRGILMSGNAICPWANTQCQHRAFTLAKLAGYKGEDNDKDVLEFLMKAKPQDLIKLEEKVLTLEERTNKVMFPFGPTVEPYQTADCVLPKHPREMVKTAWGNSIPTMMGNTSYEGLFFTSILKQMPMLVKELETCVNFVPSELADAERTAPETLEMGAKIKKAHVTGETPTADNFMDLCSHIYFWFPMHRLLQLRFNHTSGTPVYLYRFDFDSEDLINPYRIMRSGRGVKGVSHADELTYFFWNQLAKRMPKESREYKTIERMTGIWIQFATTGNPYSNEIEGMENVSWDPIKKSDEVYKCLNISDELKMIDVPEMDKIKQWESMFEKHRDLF
Protocol: FIG. 7 presents dose-response curves for the inhibition of wildtype αE7. Inhibition of the hydrolysis of […] was determined for phenylboronic acid (PBA) and compounds 1-5 and 3.1-3.12. Three (technical) replicate measurements of enzyme activity were performed for each concentration of boronic acid. The concentration of boronic acid required to inhibit 50% of activity (IC50) was determined by fitting a sigmoidal sigmoidal dose-response curve to plots of percentage inhibition. The curve was constrained to 0 (bottom) and 100% (top) inhibition with a variable Hill slope. […]
(§1) Wild-type LcαE7 was heterologously expressed in Escherichia coli and purified using metal ion affinity and size exclusion chromatography. The potency of the boronic acids was determined by enzymatic assays of recombinant LcαE7 with the model carboxylester substrate 4-nitrophenol butyrate.
His6-tagged proteins were expressed in BL21(DE3) E. coli (Invitrogen) at 26° C. for 18 hours. Cells were collected by centrifugation, resuspended in lysis buffer (300 mM NaCl, 10 mM imidazole, 50 mM HEPES pH 7.5) and lysed by sonication. Cell debris was pelleted by centrifugation and the soluble fraction was loaded onto a HisTrap-HP Ni-Sepharose column (GE Healthcare). Bound protein was eluted with lysis buffer supplemented with 300 mM imidazole. Fractions containing the eluted protein were concentrated with a 30 kDa molecular mass cutoff centrifuge concentrator (Amicon) and loaded onto a HiLoad 26/60 Superdex-200 size-exclusion column (GE Healthcare) pre-equilibrated with 150 mM NaCl, 20 mM HEPES pH 7.5. Eluted fractions containing the monomeric protein were pooled for enzyme inhibition assays or crystallization. Protein concentration was determined by measuring the absorbance at 280 nm with an extinction coefficient calculated using the Protparam online server (Gasteiger, E. et al. Protein identification and analysis tools on the ExPASy server. Proteomics Protoc. Handb. 571-607 (2005). doi:10.1385/1-59259-890-0:571).
(§2) Inhibition of wild-type αE7 and the Gly137Asp αE7 variant was determined by a competition assay between the native-substrate analogue 4-nitrophenol butyrate (Sigma) and the boronic acid compounds. Initially, the Michalis constant (KM) with 4-nitrophenol butyrate was measured for both enzymes to determine an appropriate concentration of substrate for use in the competition assays. Formation of the 4-nitrophenolate product of hydrolysis was monitored at 405 nm in the presence of enzyme and eight different concentrations of substrate. 4-nitrophenol butyrate was prepared in methanol to 100 mM and serially diluted 1-in-2 to achieve concentrations from 100 mM to 0.8 mM. Enzyme stocks were prepared in 4 mg/ml bovine serum albumin (Sigma) to maintain enzyme stability. Reactions were prepared by pipetting 178 μl assay buffer (100 mM NaCl, 20 mM HEPES pH 7.5) and 2 μl substrate (final concentrations of 1000 to 8 μM) into 300 μl wells of a 96-well plate. The reaction was initiated by the addition of 20 μl enzyme (final concentration 2.5 nM for wildtype αE7 and 4 nM for Gly137Asp αE7). Product formation was monitored for four minutes at room temperature using an Epoch microplate spectrophotometer (BioTek) and the initial rates of ester hydrolysis were determined by linear regression using GraphPad Prism. The Michalis constant was determined by fitting the initial rates to the Michalis-Menton equation (FIG. 10).
Enzyme inhibition with the boronic acid compounds was determined by assaying the initial rate of 4-nitrophenol butyrate hydrolysis in the presence of either neat DMSO or the boronic acid compounds in DMSO. Compounds were prepared by serially diluting 1-in-3 an initial 10 mM stock to achieve concentrations from 10 mM to 2 nM. Reactions were prepared by pipetting 178 μl assay buffer supplemented with substrate to a final concentration equal to the KM of the enzyme (15 μM for wildtype αE7 and 250 μM for Gly137Asp αE7) into wells of a 96-well plate. […]

wildtype LcαE7 = target: T2, wildtype LcαE7 (Lucilia cuprina, UniProt Q25252); assay: Enzyme inhibition assay with 4-nitrophenol butyrate, wild-type; format: biochemical
T2 sequence (Q25252 1-570): T1 sequence (Q25252 1-570)
Protocol: as §1, §2
Enzyme inhibition with the boronic acid compounds was determined by assaying the initial rate of 4-nitrophenol butyrate hydrolysis in the presence of either neat DMSO or the boronic acid compounds in DMSO. Compounds were prepared by serially diluting 1-in-3 an initial 10 mM stock to achieve concentrations from 10 mM to 2 nM. Reactions were prepared by pipetting 178 μl assay buffer supplemented with substrate to a final concentration equal to the KM of the enzyme (15 μM for wildtype αE7 and 250 μM for Gly137Asp αE7) into wells of a 96-well plate. 2 μl neat DMSO or 2 μl serially diluted inhibitor (final concentrations of 100 μM to 20 pM) were added to the wells. The reaction was initiated by the addition of 20 μl enzyme (final concentration 0.5 nM for wildtype αE7 and 10 nM for Glyl37Asp αE7). Product formation was monitored for four minutes at room temperature and the initial rates of ester hydrolysis were determined by linear regression. To determine the concentration of boronic acid compounds required to inhibit 50% of esterase activity (IC50), a four-parameter sigmoidal dose-response curve was fitted to percentage inhibition using GraphPad Prism (FIGS. 7 and 8). Ki values were determined using the Cheng-Prusoff equation assuming competitive inhibition (Yung-Chi, C. & Prusoff W. H. Relationship between the inhibition constant (KI) and the concentration of inhibitor which causes 50 percent inhibition (150) of an enzymatic reaction. Biochem. Pharmacol. 22, 3099-3108 (1973)).

| SMILES | IC50 [1] | Ki (wildtype LcαE7) | Ki (wildtype LcαE7; Cheng-Prusoff from dose-response, 4-nitrophenol butyrate, read-out: Ki wildtype LcαE7) |
| --- | --- | --- | --- |
| OB(O)c1ccc(OCc2ccccc2F)c(Cl)c1 [Compound 5, 3-Chloro-4(2′-fluorobenzyloxy) phenylboronic acid] | 22.4 nM | 11 nM | – |
| Cc1ccc(B(O)O)cc1Br [Compound 1] | 25 nM | 12 nM | – |
| OB(O)c1cc(Br)cc(N2CCCC2)c1 [Compound 3] | 0.52 nM | 0.25 nM | – |
| OB(O)c1cc(Br)cc(N2CCOCC2)c1 [Compound 3.1] | 1.5 nM | – | 0.7 nM |
| OB(O)c1cc(Br)cc(OCc2ccccc2)c1 [Compound 3.9] | 0.91 nM | 0.44 nM | – |
| CC(C)(C)Oc1ccc(B(O)O)cc1Br [Compound 3.12] | 25 nM | 12 nM | – |
| CN1CCN(c2cc(Br)cc(B(O)O)c2)CC1 [Compound 3.4] | 7.8 nM | 3.8 nM | – |
| CC(C)Oc1cc(Br)cc(B(O)O)c1 [Compound 3.7, 3-Bromo-5-isopropoxyphenylboronic acid] | 0.62 nM | 0.3 nM | – |
| OB(O)c1ccc2ccccc2c1 [Compound 4] | 15 nM | 7.2 nM | – |
| Cc1ccc(B(O)O)cc1OCc1ccccc1 [Compound 2] | 6.1 nM | 2.9 nM | – |
| O=C(c1cc(Cl)cc(B(O)O)c1)N1CCOCC1 [Compound 3.11] | 12 nM | 5.8 nM | – |
| OB(O)c1ccccc1 [PBA, phenylboronic acid, reference compound] | 430 nM | 210 nM | – |
| OB(O)c1cc(Br)cc2c1OCC2 [Compound 3.5] | 7.2 nM | 3.4 nM | – |
| OB(O)c1cc(Br)cc(Oc2ccccc2)c1 [Compound 3.10, 3-Bromo-5-phenoxyfenylboronic acid] | 0.91 nM | 0.44 nM | – |
| OB(O)c1cc(Br)cc(OC(F)(F)F)c1 [Compound 3.8] | 4.2 nM | 2 nM | – |
| OB(O)c1cc(Br)cc(N2CCCCC2)c1 [Compound 3.3] | 0.97 nM | 0.47 nM | – |
| OB(O)c1cc(Br)c2ccccc2c1F [Compound 3.6] | 13 nM | 6 nM | – |
